Experimental findings from patent US6355614B1, “Cyclic boroproline compounds” (Point Therapeutics, priority 1998, dated 2002) are described below.

This data set in a line: Conformational equilibrium of open chain and cyclic forms in aqueous solution (from apparent Ki at equilibrium vs true Ki). The following applies: at equilibrium at pH 7.0. The format is physicochemical. The source says:
See FIG. 3 which is a diagram showing the structures of the open and cyclized forms of Xaa-boroPro inhibitors (conformational equilibrium of Xaa-boroproline inhibitors). The open, active, inhibitory chain species is favored at low pH while the cyclized structure is favored at neutral pH. The reaction is fully reversible: the open chain becomes predominant at low pH. The open chain to cyclic species reaction involves a trans to cis isomerization of the proline and the formation of a new N—B bond. […] G. Gutheil and W. W. Bachovchin, Separation of L-Pro-DL-boroPro into Its Component Diastereomers and Kinetic Analysis of Their Inhibition of Dipeptidyl Peptidase IV. A New Method for the Analysis of Slow, Tight-Binding Inhibition, Biochemistry 32, 8723-8731 (1993)).

Turning to `CC(C)C(N)C(=O)N1CCCC1B(O)O` (centres unmarked) [Val-boroPro], the “fraction existing as the open chain, inhibitory species” value is on record as “less than 0.1%”.
The same measure for `O=C(C1CCCN1)N1CCCC1B(O)O` (centres unmarked) [Pro-boroPro]: “less than 1%”.
